Target: T1, human DβH (Homo sapiens, UniProt P09172)
T1 construct: endogenous in cells; host or cells: SK-N-SH cells
T1 sequence (P09172 1-617): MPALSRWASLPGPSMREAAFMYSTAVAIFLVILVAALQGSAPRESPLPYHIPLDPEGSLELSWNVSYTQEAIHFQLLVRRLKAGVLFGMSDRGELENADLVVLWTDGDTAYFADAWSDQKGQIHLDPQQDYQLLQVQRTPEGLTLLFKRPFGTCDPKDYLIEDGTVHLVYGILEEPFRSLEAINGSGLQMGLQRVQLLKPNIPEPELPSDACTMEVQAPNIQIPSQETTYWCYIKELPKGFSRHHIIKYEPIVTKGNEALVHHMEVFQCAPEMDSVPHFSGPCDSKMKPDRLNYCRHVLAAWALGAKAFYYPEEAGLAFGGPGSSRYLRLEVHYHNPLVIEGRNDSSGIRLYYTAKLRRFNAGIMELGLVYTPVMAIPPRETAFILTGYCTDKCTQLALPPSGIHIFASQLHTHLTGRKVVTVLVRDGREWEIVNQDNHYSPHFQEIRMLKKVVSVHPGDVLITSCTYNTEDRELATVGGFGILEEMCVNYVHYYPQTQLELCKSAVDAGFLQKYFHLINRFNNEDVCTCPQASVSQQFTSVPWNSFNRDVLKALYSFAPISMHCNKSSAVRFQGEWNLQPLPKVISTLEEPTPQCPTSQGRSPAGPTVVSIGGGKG
Assay: DβH activity in SK-N-SH cells (β-hydroxylation of dopamine to noradrenaline)
Type: cell-based
Conditions: for inhibition of DβH activity (in words): as listed in Table 1, 5 μM; for DβH activity, Mean ± SEM, % of control: compound 5 μM

Row | inhibition of DβH activity (in words) | DβH activity, Mean ± SEM, % of control | IC50 against human DβH activity (in words) (concentration-dependent decrease in β-hydroxylation of dopamine) | SMILES
1 | markedly inhibit |  |  | Cl.NCCCc1c[nH]c(=S)n1[C@H]1CCc2c(F)cc(F)cc2C1 [Compound 5, (S)-5-(3-aminopropyl)-1-(5,7-difluoro-1,2,3,4-tetrahydronaphthalen-2-yl)-1,3-dihydroimidazole-2-thione hydrochloride]
2 | markedly inhibit | 3.0 ± 0.5 % of control |  | Cl.NCCc1c[nH]c(=S)n1[C@H]1COc2ccccc2C1 [Compound 12, (R)-5-(2-aminoethyl)-1-chroman-3-yl-1,3-dihydroimidazole-2-thione hydrochloride]
3 | markedly inhibit |  | low nM range | Cl.NCc1c[nH]c(=S)n1[C@H]1COc2c(F)cc(F)cc2C1 [Compound 3, (R)-5-aminomethyl-1-(6,8-difluorochroman-3-yl)-1,3-dihydroimidazole-2-thione hydrochloride]
4 | markedly inhibit | 0.0 ± 0.6 % of control |  | Cl.NCCc1c[nH]c(=S)n1[C@H]1COc2ccc(O)cc2C1 [Compound 16, (R)-5-(2-aminoethyl)-1-(6-hydroxychroman-3-yl)-1,3-dihydroimidazole-2-thione hydrochloride]
5 | markedly inhibit | 0.0 ± 1.9 % of control |  | Cl.NCc1c[nH]c(=S)n1[C@H]1COc2ccccc2C1 [Compound 24, (R)-5-aminomethyl-1-chroman-3-yl-1,3-dihydroimidazole-2-thione hydrochloride]
6 | markedly inhibit |  |  | Cl.NCCc1c[nH]c(=S)n1[C@H]1COc2c(F)cccc2C1 [Compound 6, (R)-5-(2-aminoethyl)-1-(8-fluorochroman-3-yl)-1,3-dihydroimidazole-2-thione hydrochloride]
7 | markedly inhibit |  |  | Cl.NCCc1c[nH]c(=S)n1[C@H]1COc2cc(F)c(F)cc2C1 [Compound 8, (R)-5-(2-aminoethyl)-1-(6,7-difluorochroman-3-yl)-1,3-dihydroimidazole-2-thione hydrochloride]
8 |  | 99.4 ± 2.8 % of control |  | COc1ccc2c(c1)C[C@@H](n1c(CCN)c[nH]c1=S)CS2.Cl (racemic) [Compound 30, (R,S)-5-(2-aminoethyl)-1-(6-methoxythiochroman-3-yl)-1,3-dihydroimidazole-2-thione hydrochloride]
9 | markedly inhibit |  |  | COc1cccc2c1OC[C@H](n1c(CCN)c[nH]c1=S)C2.Cl [Compound 19, (R)-5-(2-aminoethyl)-1-(8-methoxychroman-3-yl)-1,3-dihydroimidazole-2-thione hydrochloride]
10 | markedly inhibit |  |  | Cl.NCCc1c[nH]c(=S)n1[C@H]1COc2c(cc(F)c(F)c2F)C1 [Compound 10, (R)-5-(2-aminoethyl)-1-(6,7,8-trifluorochroman-3-yl)-1,3-dihydroimidazole-2-thione hydrochloride]
11 | markedly inhibit |  |  | Cl.Oc1ccc2c(c1)C[C@@H](n1c(CCNCc3ccccc3)c[nH]c1=S)CO2 [Compound 26, (R)-5-(2-Benzylaminoethyl)-1-(6-hydroxychroman-3-yl)-1,3-dihydroimidazole-2-thione hydrochloride]
12 | markedly inhibit |  |  | CNCCc1c[nH]c(=S)n1[C@H]1COc2c(F)cc(F)cc2C1.Cl [Compound 28, (R)-1-(6,8-Difluorochroman-3-yl)-5-(2-methylaminoethyl)-1,3-dihydroimidazole-2-thione hydrochloride]
13 |  | 27.3 ± 0.4 % of control |  | Cl.NCCc1c[nH]c(=S)n1[C@H]1CSc2ccc(O)cc2C1 (racemic) [Compound 31, (R,S)-5-(2-aminoethyl)-1-(6-hydroxythiochroman-3-yl)-1,3-dihydroimidazole-2-thione hydrochloride]

Source: US20100286219A1, “1, 3-Dihydroimidazoles for Treating Cardiovascular Disorders” (BIAL - PORTELA & CA S.A., priority 2007, published 2010)
